Consider two compounds from patent US10517803B2, “Individual's sensitivity to fluoride poisoning” (priority 2017, dated 2019).

Data set [1] relates to people. Conditions: most people; cited from earlier work.
The test system of data set [2] is rats. Conditions: orally in rats; cited from earlier work.
The test system of data set [3] is rats. Nature of the data set: Median lethal dose (LD50) orally in rats. The format is in vivo. Conditions: extrapolated from oral rat LD50 to a 100 kg adult.

In the case of `F` [Fluoride], the “highest level of daily nutrient intake likely to pose no risk of adverse health effects” value in data set [1] is reported as 10 mg/day.

Regarding `F[Si-2](F)(F)(F)(F)F.[Na+].[Na+]` [sodium fluorosilicate], the “median lethal dose (LD50)” value in data set [2] is on record as 0.125 g/kg. Also, the “median lethal dose (LD50), corresponding amount for a 100 kg adult” value in data set [3] was 12.5 g.
